Measured values published in publication PMC8793051 (ACS Omega, 2022).

Tests used:
[1] = tested on: oligo-2: d(CGATGTACATCG)2; assay: UV thermal denaturation; type: binding
[2] = tested on: oligo-2: d(CGATGTACATCG)2; assay: Fluorescence titration; type: binding; conditions: 20 °C, pH 7.2
CCRF-CEM = assay: NCI-60 SRB growth assay; type: cell-based, human
K-562 = assay: NCI-60 SRB growth assay; type: cell-based, human
MOLT-4 = assay: NCI-60 SRB growth assay; type: cell-based, human
RPMI-8226 = assay: NCI-60 SRB growth assay; type: cell-based, human
A549/ATCC = assay: NCI-60 SRB growth assay; type: cell-based, human
HOP-92 = assay: NCI-60 SRB growth assay; type: cell-based, human
NCI-H226 = assay: NCI-60 SRB growth assay; type: cell-based, human
NCI-H460 = assay: NCI-60 SRB growth assay; type: cell-based, human
NCI-H522 = assay: NCI-60 SRB growth assay; type: cell-based, human
COLO 205 = assay: NCI-60 SRB growth assay; type: cell-based, human
HCC-2998 = assay: NCI-60 SRB growth assay; type: cell-based, human
HCT-15 = assay: NCI-60 SRB growth assay; type: cell-based, human
KM12 = assay: NCI-60 SRB growth assay; type: cell-based, human
SW-620 = assay: NCI-60 SRB growth assay; type: cell-based, human
SF-295 = assay: NCI-60 SRB growth assay; type: cell-based, human
SNB-75 = assay: NCI-60 SRB growth assay; type: cell-based, human
MALME-3M = assay: NCI-60 SRB growth assay; type: cell-based, human
M14 = assay: NCI-60 SRB growth assay; type: cell-based, human
SK-MEL-2 = assay: NCI-60 SRB growth assay; type: cell-based, human; conditions: SK-MEL-2
UACC-62 = assay: NCI-60 SRB growth assay; type: cell-based, human
OVCAR-4 = assay: NCI-60 SRB growth assay; type: cell-based, human
NCI/ADR-RES = assay: NCI-60 SRB growth assay; type: cell-based, human
ACHN = assay: NCI-60 SRB growth assay; type: cell-based, human
CAKI-1 = assay: NCI-60 SRB growth assay; type: cell-based, human
SN12C = assay: NCI-60 SRB growth assay; type: cell-based, human
UO-31 = assay: NCI-60 SRB growth assay; type: cell-based, human
DU-145 = assay: NCI-60 SRB growth assay; type: cell-based, human
MDA-MB-231/ATCC = assay: NCI-60 SRB growth assay; type: cell-based, human
HS 578T = assay: NCI-60 SRB growth assay; type: cell-based, human
BT-549 = assay: NCI-60 SRB growth assay; type: cell-based, human; conditions: BT-549
[3] = tested on: panel of 60 human cancer cell lines; assay: cells; conditions: read-out: GI50 concentration range

With `CCCCN1CCN(c2ccc3[nH]c(-c4ccc5[nH]c(-c6ccc(OCC)c(OCC)c6)nc5c4)nc3c2)CC1` [12a, 5-(4-Butylpiperazin-1-yl)-2-(2-(3,4-diethoxyphenyl)-1H-benzo[d]imidazol-5-yl)-1H-benzo[d]imidazole] as the molecule, how does the ΔTm ([1]; r = 0.5) read?
Its ΔTm is 1 °C.

What about the Tm ([1]; r = 0.5, oligo 2.5 μM) of the same molecule?
The Tm was 57.9 °C.

What about the Tm ([1]; r = 1) of the same molecule?
Its Tm is 58.9 °C.

What about the ΔTm ([1]; r = 1) of the same molecule?
The ΔTm was 2 °C.

What about the Tm ([1]; r = 1.5) of the same molecule?
Its Tm is 58.9 °C.

And the ΔTm ([1]; r = 1.5)?
Its ΔTm is 2 °C.

And the Tm ([1]; r = 2.0)?
The Tm was 59.9 °C.

What about the ΔTm ([1]; r = 2.0) of the same molecule?
Its ΔTm is 3 °C.

What about the “Ka binding affinity with oligo-2” value [2] of the same molecule?
The value was 4 × 10^6 M^1.

And the TGI (CCRF-CEM)?
The TGI was 3060 nM.

What about the GI50 (CCRF-CEM; Homo sapiens) of the same molecule?
Its GI50 is 530 nM.

What about the CC50 (CCRF-CEM; Homo sapiens, read-out: LC50) of the same molecule?
The CC50 was greater than 100000 nM.

What about the GI50 (K-562; Homo sapiens, K562) of the same molecule?
The GI50 was 520 nM.

And the CC50 (K-562; Homo sapiens, K562, read-out: LC50)?
The CC50 was 7530 nM.

And the TGI (K-562; K-562)?
The TGI was 2270 nM.

What about the GI50 (MOLT-4; Homo sapiens, MOLT-4) of the same molecule?
Its GI50 is 1220 nM.

And the CC50 (MOLT-4; Homo sapiens, MOLT-4, read-out: LC50)?
Its CC50 is 31600 nM.

And the TGI (MOLT-4; MOLT-4)?
The TGI was 3860 nM.

And the GI50 (RPMI-8226; Homo sapiens, RPMI-8226)?
The GI50 was 430 nM.

And the CC50 (RPMI-8226; Homo sapiens, RPMI-8226, read-out: LC50)?
Its CC50 is greater than 100000 nM.

What about the TGI (RPMI-8226; RPMI-8226) of the same molecule?
Its TGI is 2060 nM.

And the TGI (A549/ATCC; A549/ATCC)?
The TGI was 2930 nM.

And the GI50 (A549/ATCC; Homo sapiens, A549)?
The GI50 was 1180 nM.

And the TGI (HOP-92; HOP-92)?
Its TGI is 3170 nM.

And the GI50 (HOP-92; Homo sapiens, HOP-92)?
Its GI50 is 1230 nM.

What about the CC50 (HOP-92; Homo sapiens, HOP-92, read-out: LC50) of the same molecule?
Its CC50 is 8150 nM.

And the GI50 (NCI-H226; Homo sapiens, NCI-H226)?
Its GI50 is 1290 nM.

What about the CC50 (NCI-H226; Homo sapiens, NCI-H226, read-out: LC50) of the same molecule?
Its CC50 is greater than 100000 nM.

And the TGI (NCI-H226; NCI–H226)?
Its TGI is 3950 nM.

And the GI50 (NCI-H460; Homo sapiens, NCI-H460)?
Its GI50 is 530 nM.

And the CC50 (NCI-H460; Homo sapiens, NCI-H460, read-out: LC50)?
The CC50 was 5310 nM.

What about the TGI (NCI-H460; NCI–H460) of the same molecule?
Its TGI is 1860 nM.

What about the GI50 (NCI-H522; Homo sapiens, NCI-H522) of the same molecule?
The GI50 was 1200 nM.

And the CC50 (NCI-H522; Homo sapiens, NCI-H522, read-out: LC50)?
Its CC50 is greater than 100000 nM.

What about the TGI (NCI-H522; NCI–H522) of the same molecule?
Its TGI is 3970 nM.

And the TGI (COLO 205; COLO 205)?
The TGI was 1520 nM.

And the GI50 (COLO 205; Homo sapiens, COLO 205)?
Its GI50 is 230 nM.

What about the CC50 (COLO 205; Homo sapiens, COLO 205, read-out: LC50) of the same molecule?
Its CC50 is 6180 nM.

And the TGI (HCC-2998; HCC-2998)?
The TGI was 3220 nM.

And the GI50 (HCC-2998; Homo sapiens, HCC 2998)?
The GI50 was 1710 nM.

And the TGI (HCT-15; HCT-15)?
The TGI was 3320 nM.

And the GI50 (HCT-15; Homo sapiens, HCT-15)?
The GI50 was 1560 nM.

What about the CC50 (HCT-15; Homo sapiens, HCT-15, read-out: LC50) of the same molecule?
The CC50 was 7050 nM.

What about the GI50 (KM12; Homo sapiens, KM12) of the same molecule?
The GI50 was 1420 nM.

What about the CC50 (KM12; Homo sapiens, KM12, read-out: LC50) of the same molecule?
The CC50 was 6280 nM.

And the TGI (KM12; KM12)?
Its TGI is 2990 nM.

What about the GI50 (SW-620; Homo sapiens, SW-620) of the same molecule?
Its GI50 is 470 nM.

What about the CC50 (SW-620; Homo sapiens, SW-620, read-out: LC50) of the same molecule?
Its CC50 is 5150 nM.

What about the TGI (SW-620; SW620) of the same molecule?
Its TGI is 1790 nM.

And the GI50 (SF-295; Homo sapiens, SF-295)?
The GI50 was 700 nM.

What about the TGI (SF-295; SF-265) of the same molecule?
Its TGI is 2260 nM.

And the GI50 (SNB-75; Homo sapiens, SNB-75)?
The GI50 was 650 nM.

What about the CC50 (SNB-75; Homo sapiens, SNB-75, read-out: LC50) of the same molecule?
The CC50 was 4540 nM.

And the TGI (SNB-75; SNB-75)?
The TGI was 2010 nM.

And the GI50 (MALME-3M; Homo sapiens, Malme-3M)?
The GI50 was 190 nM.

What about the TGI (MALME-3M; MALME-3M) of the same molecule?
The TGI was 1180 nM.

And the GI50 (M14; Homo sapiens, M14)?
The GI50 was 310 nM.

What about the CC50 (M14; Homo sapiens, M14, read-out: LC50) of the same molecule?
The CC50 was 4680 nM.

What about the TGI (M14; M14) of the same molecule?
The TGI was 1550 nM.

And the GI50 (SK-MEL-2; Homo sapiens)?
Its GI50 is 1680 nM.

And the TGI (SK-MEL-2)?
The TGI was 3660 nM.

And the GI50 (UACC-62; Homo sapiens, UACC-62)?
The GI50 was 680 nM.

What about the CC50 (UACC-62; Homo sapiens, UACC-62, read-out: LC50) of the same molecule?
The CC50 was 5420 nM.

What about the TGI (UACC-62; UACC-62) of the same molecule?
The TGI was 2180 nM.

What about the GI50 (OVCAR-4; Homo sapiens, OVCAR-4) of the same molecule?
The GI50 was 1480 nM.

What about the CC50 (OVCAR-4; Homo sapiens, OVCAR-4, read-out: LC50) of the same molecule?
The CC50 was 6950 nM.

What about the TGI (OVCAR-4; OVCAR-4) of the same molecule?
The TGI was 3210 nM.

And the TGI (NCI/ADR-RES)?
Its TGI is 100000 nM.

What about the GI50 (NCI/ADR-RES; Homo sapiens) of the same molecule?
The GI50 was 100000 nM.

What about the CC50 (NCI/ADR-RES; Homo sapiens, read-out: LC50) of the same molecule?
The CC50 was greater than 100000 nM.

And the TGI (ACHN)?
The TGI was 2120 nM.

What about the GI50 (ACHN; Homo sapiens) of the same molecule?
Its GI50 is 920 nM.

What about the CC50 (ACHN; Homo sapiens, read-out: LC50) of the same molecule?
Its CC50 is 4650 nM.

And the TGI (CAKI-1; CAKI-1)?
The TGI was 2520 nM.

And the GI50 (CAKI-1; Homo sapiens, CAKI-1)?
The GI50 was 1040 nM.

What about the CC50 (CAKI-1; Homo sapiens, CAKI-1, read-out: LC50) of the same molecule?
Its CC50 is 6120 nM.

What about the GI50 (SN12C; Homo sapiens, SN12C) of the same molecule?
The GI50 was 1030 nM.

What about the TGI (SN12C; SN12c) of the same molecule?
The TGI was 2610 nM.

What about the GI50 (UO-31; Homo sapiens, UO-31) of the same molecule?
The GI50 was 2000 nM.

What about the CC50 (UO-31; Homo sapiens, UO-31, read-out: LC50) of the same molecule?
Its CC50 is 43800 nM.

What about the TGI (UO-31; UO-31) of the same molecule?
The TGI was 5800 nM.

And the TGI (DU-145; DU-145)?
Its TGI is 2210 nM.

What about the GI50 (DU-145; Homo sapiens, DU-145) of the same molecule?
The GI50 was 1000 nM.

What about the CC50 (DU-145; Homo sapiens, DU-145, read-out: LC50) of the same molecule?
The CC50 was 4880 nM.

What about the GI50 (MDA-MB-231/ATCC; Homo sapiens, MDA-MB-231) of the same molecule?
The GI50 was 1690 nM.

What about the CC50 (MDA-MB-231/ATCC; Homo sapiens, MDA-MB-231, read-out: LC50) of the same molecule?
Its CC50 is 6380 nM.

And the TGI (MDA-MB-231/ATCC; MDA-MB-231)?
The TGI was 3280 nM.

And the TGI (HS 578T; HS578T)?
Its TGI is 3900 nM.

What about the GI50 (HS 578T; Homo sapiens, Hs-578T) of the same molecule?
The GI50 was 1540 nM.

And the TGI (BT-549)?
Its TGI is 3070 nM.

And the GI50 (BT-549; Homo sapiens)?
Its GI50 is 1550 nM.

What about the GI50 [3] of the same molecule?
The GI50 was 160 to 3600 nM.
